Test results taken from the NIST ThermoML archive (doi:10.1021/je7004374).

Assays:
[1] = Liquid; for speed of sound: Sing-around technique in a fixed-path interferometer
[2] = refractive index (Na D-line) (dimensionless); details: 298.15 K; 101.33 kPa; Liquid; Standard Abbe refractometry

OCCCO [propan-1,3-diol]
[1]
Details | mass density [kg/m3] | speed of sound [m/s]
283.16 K, 101.33 kPa | 1059.09 | –
288.15 K, 101.33 kPa | 1056 | –
292.88 K, 30390 kPa | – | 1721.7
292.89 K, 15200 kPa | – | 1681.2
292.89 K, 45590 kPa | – | 1760.3
292.89 K, 60790 kPa | – | 1797
292.89 K, 75990 kPa | – | 1832.2
292.89 K, 91180 kPa | – | 1865.9
292.89 K, 101320 kPa | – | 1887.8
292.91 K, 100 kPa | – | 1636.5
293.15 K, 100 kPa | 1052.91 | –
293.15 K, 101.33 kPa | – | 1636
293.15 K, 10000 kPa | 1057 | –
293.15 K, 20000 kPa | 1060.96 | –
293.15 K, 30000 kPa | 1064.8 | –
293.15 K, 40000 kPa | 1068.51 | –
293.15 K, 50000 kPa | 1072.11 | –
293.15 K, 60000 kPa | 1075.61 | –
293.15 K, 70000 kPa | 1079.02 | –
293.15 K, 80000 kPa | 1082.34 | –
293.15 K, 90000 kPa | 1085.57 | –
293.15 K, 100000 kPa | 1088.73 | –
293.16 K, 101.33 kPa | 1052.89 | –
298.15 K, 100 kPa | 1049.81 | –
298.15 K, 101.33 kPa | 1049.78 | 1624.5
298.15 K, 10000 kPa | 1053.95 | –
298.15 K, 20000 kPa | 1057.97 | –
298.15 K, 30000 kPa | 1061.86 | –
298.15 K, 40000 kPa | 1065.62 | –
298.15 K, 50000 kPa | 1069.27 | –
298.15 K, 60000 kPa | 1072.82 | –
298.15 K, 70000 kPa | 1076.26 | –
298.15 K, 80000 kPa | 1079.62 | –
298.15 K, 90000 kPa | 1082.89 | –
298.15 K, 100000 kPa | 1086.09 | –
298.16 K, 75990 kPa | – | 1821.4
298.16 K, 91180 kPa | – | 1855.4
298.16 K, 101320 kPa | – | 1877.2
298.17 K, 100 kPa | – | 1624.5
298.17 K, 15200 kPa | – | 1668.7
298.17 K, 30390 kPa | – | 1709.9
298.17 K, 45590 kPa | – | 1748.8
298.17 K, 60790 kPa | – | 1786
303.14 K, 101320 kPa | – | 1868
303.15 K, 100 kPa | 1046.7 | 1613.2
303.15 K, 101.33 kPa | – | 1613.2
303.15 K, 10000 kPa | 1050.89 | –
303.15 K, 20000 kPa | 1054.96 | –
303.15 K, 30000 kPa | 1058.9 | –
303.15 K, 40000 kPa | 1062.72 | –
303.15 K, 45590 kPa | – | 1738.6
303.15 K, 50000 kPa | 1066.41 | –
303.15 K, 60000 kPa | 1070 | –
303.15 K, 60790 kPa | – | 1776
303.15 K, 70000 kPa | 1073.49 | –
303.15 K, 75990 kPa | – | 1811.7
303.15 K, 80000 kPa | 1076.89 | –
303.15 K, 90000 kPa | 1080.2 | –
303.15 K, 91180 kPa | – | 1845.8
303.15 K, 100000 kPa | 1083.43 | –
303.16 K, 101.33 kPa | 1046.65 | –
303.16 K, 15200 kPa | – | 1657.6
303.16 K, 30390 kPa | – | 1699
308.13 K, 100 kPa | – | 1601.9
308.15 K, 100 kPa | 1043.56 | –
308.15 K, 101.33 kPa | – | 1601.8
308.15 K, 10000 kPa | 1047.8 | –
308.15 K, 15200 kPa | – | 1646.6
308.15 K, 20000 kPa | 1051.94 | –
308.15 K, 30000 kPa | 1055.93 | –
308.15 K, 30390 kPa | – | 1688.4
308.15 K, 40000 kPa | 1059.79 | –
308.15 K, 45590 kPa | – | 1728.4
308.15 K, 50000 kPa | 1063.54 | –
308.15 K, 60000 kPa | 1067.17 | –
308.15 K, 60790 kPa | – | 1766
308.15 K, 70000 kPa | 1070.71 | –
308.15 K, 75990 kPa | – | 1802
308.15 K, 80000 kPa | 1074.14 | –
308.15 K, 90000 kPa | 1077.49 | –
308.15 K, 91180 kPa | – | 1836.6
308.15 K, 100000 kPa | 1080.76 | –
308.15 K, 101320 kPa | – | 1858.8
308.16 K, 101.33 kPa | 1043.52 | –
313.12 K, 100 kPa | – | 1590.5
313.12 K, 91180 kPa | – | 1827.4
313.12 K, 101320 kPa | – | 1849.7
313.13 K, 30390 kPa | – | 1678
313.13 K, 45590 kPa | – | 1718.2
313.13 K, 60790 kPa | – | 1756.4
313.13 K, 75990 kPa | – | 1792.6
313.14 K, 15200 kPa | – | 1635.8
313.15 K, 100 kPa | 1040.39 | –
313.15 K, 101.33 kPa | 1040.36 | 1590.5
313.15 K, 10000 kPa | 1044.7 | –
313.15 K, 20000 kPa | 1048.89 | –
313.15 K, 30000 kPa | 1052.94 | –
313.15 K, 40000 kPa | 1056.85 | –
313.15 K, 50000 kPa | 1060.65 | –
313.15 K, 60000 kPa | 1064.33 | –
313.15 K, 70000 kPa | 1067.9 | –
313.15 K, 80000 kPa | 1071.38 | –
313.15 K, 90000 kPa | 1074.77 | –
313.15 K, 100000 kPa | 1078.07 | –
318.15 K, 100 kPa | 1037.21 | –
318.15 K, 101.33 kPa | 1037.19 | 1579.2
318.15 K, 10000 kPa | 1041.57 | –
318.15 K, 20000 kPa | 1045.83 | –
318.15 K, 30000 kPa | 1049.93 | –
318.15 K, 40000 kPa | 1053.9 | –
318.15 K, 50000 kPa | 1057.74 | –
318.15 K, 60000 kPa | 1061.47 | –
318.15 K, 70000 kPa | 1065.09 | –
318.15 K, 80000 kPa | 1068.61 | –
318.15 K, 90000 kPa | 1072.03 | –
318.15 K, 100000 kPa | 1075.37 | –
318.3 K, 100 kPa | – | 1578.9
318.31 K, 30390 kPa | – | 1667.3
318.31 K, 45590 kPa | – | 1708
318.31 K, 60790 kPa | – | 1746.3
318.31 K, 75990 kPa | – | 1783.1
318.31 K, 91180 kPa | – | 1818
318.31 K, 101320 kPa | – | 1840.6
318.32 K, 15200 kPa | – | 1624.6
323.15 K, 101.33 kPa | 1034 | –
328.16 K, 101.33 kPa | 1030.79 | –
333.15 K, 101.33 kPa | 1027.56 | –
338.15 K, 101.33 kPa | 1024.3 | –
343.15 K, 101.33 kPa | 1021.01 | –
348.15 K, 101.33 kPa | 1017.69 | –
353.15 K, 101.33 kPa | 1014.34 | –
358.15 K, 101.33 kPa | 1010.96 | –
363.15 K, 101.33 kPa | 1007.54 | –

Details | refractive index
[2] | 1.438
